US8247409B2, “Thieno-[2,3-d]pyrimidine and thieno-pyridazine compounds and methods of use” (Amgen Inc., priority 2006, dated 2012)

Each compound was assayed on LPS induced TNF release from monocytes (assay: Lipopolysaccharide-activated Monocyte TNF Production Assay). Settings: Homo sapiens, monocytes activated with LPS, TNF in supernatant by ELISA.
Format: cell-based
Description: Lipopolysaccharide-activated Monocyte TNF Production Assay
Test compounds were evaluated in vitro for the ability to inhibit the production of TNF by monocytes activated with bacterial lipopolysaccharide (LPS). Fresh residual source leukocytes (a byproduct of plateletpheresis) were obtained from a local blood bank, and peripheral blood mononuclear cells (PBMCs) were isolated by density gradient centrifugation on Ficol-Paque Plus (Pharmacia). PBMCs were suspended at 2×10^6/mL in DMEM supplemented to contain 2% FCS, 10 mM, 0.3 mg/mL […], 100 U/mL penicillin G and […] streptomycin sulfate (complete media). Cells were plated into Falcon flat bottom, 96 well culture plates (200 μL/well) and cultured overnight at 37° C. and 6% CO2. Non-adherent cells were removed by washing with 200 μL/well of fresh medium. Wells containing adherent cells (˜70% monocytes) were replenished with 100 μL of fresh medium.
Preparation of Test Compound Stock Solutions
Test compounds were dissolved in […]. Compound stock solutions were prepared to an initial concentration of […]. Stocks were diluted initially to 20-200 μM in complete media. Nine two-fold serial dilutions of each compound were then prepared in complete medium.
Treatment of Cells with Test Compounds and Activation of TNF Production with Lipopolysaccharide
One hundred microliters of each test compound dilution were added to microtiter wells containing adherent monocytes and 100 μL complete medium. Monocytes were cultured with test compounds for 60 min at which time 25 μL of complete medium containing 30 ng/mL lipopolysaccharide from E. coli K532 were added to each well. Cells were cultured an additional 4 hrs. Culture supernatants were then removed and TNF presence in the supernatants was quantified using an ELISA.
Flat bottom, 96 well Corning High Binding ELISA plates were coated overnight (4° C.) with 150 μL/well of 3 μg/mL murine anti-human TNF-α MAb (R&D Systems #MAB210). Wells were then blocked for 1 h at room temperature with 200 μL/well of CaCl2-free ELISA buffer supplemented to contain 20 mg/mL BSA (standard ELISA buffer: […], 150 mM NaCl, 2 mM CaCl2, 0.15 mM thimerosal, pH 7.4). Plates were washed and replenished with 100 μL of test supernatants (diluted 1:3) or standards. Standards consisted of eleven 1.5-fold serial dilutions from a stock of 1 ng/mL recombinant human TNF (R&D Systems). Plates were incubated at room temperature for 1 hr on orbital shaker (300 rpm); washed and replenished with 100 μL/well of 0.5 μg/mL goat anti-human TNF-α (R&D systems #AB-210-NA) biotinylated at a 4:1 ratio. Plates were incubated for 40 min, washed and replenished with 100 μL/well of alkaline phosphatase-conjugated streptavidin (Jackson ImmunoResearch #016-050-084) at 0.02 μg/mL. Plates were incubated 30 min, washed and replenished with 200 μL/well of 1 mg/mL of p-nitrophenyl phosphate. After 30 min, plates were read at 405 nm on a Vmax plate reader.
Standard curve data were fit to a second order polynomial and unknown TNF-α concentrations determined from their OD by solving this equation for concentration. TNF concentrations were then plotted vs. test compound concentration using a second order polynomial. This equation was then used to calculate the concentration of test compounds causing a 50% reduction in TNF production.

| IC50 | Compound |
| --- | --- |
| ≤ 5 µM | COc1c(F)cccc1-c1nncc2cc(-c3cc(C(=O)NC4CC4)ccc3C)sc12 [Example 3, N-cyclopropyl-3-(7-(3-fluoro-2-methoxyphenyl)thieno[2,3-d]pyridazin-2-yl)-4-methylbenzamide] |
| ≤ 5 µM | Cc1ccc(C(=O)NC2CC2)cc1-c1cc2cnnc(N3CCNC(=O)C3)c2s1 [Example 6, N-cyclopropyl-4-methyl-3-(7-(3-oxopiperazin-1-yl)thieno[2,3-d]pyridazin-2-yl)benzamide] |
| ≤ 5 µM | Cc1ccc(C(=O)NC2CC2)cc1-c1cc2cnnc(Cl)c2s1 [Example 21, 3-(7-chlorothieno[2,3-d]pyridazin-2-yl)-N-cyclopropyl-4-methylbenzamide] |
| ≤ 5 µM | Cc1ccc(C(=O)NC2CC2)cc1-c1cc2cnnc(-c3ccc(F)cc3C)c2s1 [Example 22, N-cyclopropyl-3-(7-(4-fluoro-2-methylphenyl)thieno[2,3-d]pyridazin-2-yl)-4-methylbenzamide] |
| ≤ 5 µM | COc1ncccc1-c1nncc2cc(-c3cc(C(=O)NC4CC4)ccc3C)sc12 [Example 23, N-cyclopropyl-4-methyl-3-(7-(2-(methyloxy)-3-pyridinyl)thieno[2,3-d]pyridazin-2-yl)benzamide] |

Further lines, the compound ahead of its results:

| Compound | IC50 |
| --- | --- |
| Cc1ccc(C(=O)NC2CC2)cc1-c1cc2cnc(CCN3CCOCC3)nc2s1 [Example 1, N-Cyclopropyl-4-methyl-3-(2-(2-morpholinoethyl)thieno[2,3-d]pyrimidin-6-yl)benzamide] | ≤ 5 µM |
| CCN(CC)CCCNc1ncc2cc(-c3cc(C(=O)NC4CC4)ccc3C)sc2n1 [Example 7, N-cyclopropyl-3-(2-((3-(diethylamino)propyl)amino)thieno[2,3-d]pyrimidin-6-yl)-4-methylbenzamide] | ≤ 5 µM |
| CCNC(=O)c1ccc(C)c(-c2cc3cnc(NCCN4CCOCC4)nc3s2)c1 [Example 9, N-ethyl-4-methyl-3-(2-((2-(4-morpholinyl)ethyl)amino)thieno[2,3-d]pyrimidin-6-yl)benzamide] | ≤ 5 µM |
| Cc1ccc(C(=O)O)cc1-c1cc2cnc(NCCN3CCOCC3)nc2s1 [Example 10, 4-methyl-3-(2-((2-(4-morpholinyl)ethyl)amino)thieno[2,3-d]pyrimidin-6-yl)benzoic acid] | ≤ 5 µM |
| Cc1ccc(C(=O)NC2CC2)cc1-c1cc2cnc(NCC3CCCN(C(=O)OC(C)(C)C)C3)nc2s1 (centres unmarked) [Example 14, 1,1-dimethylethyl 3-(((6-(5-((cyclopropylamino)carbonyl)-2-methylphenyl)thieno[2,3-d]pyrimidin-2-yl)amino)methyl)-1-piperidinecarboxylate] | ≤ 5 µM |
| Cc1ccc(C(N)=O)cc1-c1cc2cnnc(-c3ccc(F)cc3C)c2s1 [Example 27, 3-(7-(4-fluoro-2-methylphenyl)thieno[2,3-d]pyridazin-2-yl)-4-methylbenzamide] | ≤ 5 µM |
